The text below walks through data of article PMC10418599, “Quercetins, Chlorogenic Acids and Their Colon Metabolites Inhibit Colon Cancer Cell Proliferation at Physiologically Relevant Concentrations” (International Journal of Molecular Sciences, 2023).

The conditions of data set [1]: cited from earlier work; for Maximum value in human fecal water: after raspberry supplementation, ref 49 (Gill et al.).
Data set [2] deals with Caco-2 cell line. The experiment in a line: in vitro. The format is in vitro ADME. The note with it: human; for Concentration of substrate in cell medium: 50 μmol/L. The procedure:
(§1) To analyze the metabolism of phenolic compounds by Caco-2 and SW480 cells, the cell culture media were withdrawn after 0, 24, 48 and 72 h of incubation. Phenolic compounds were extracted from the culture media by following the procedure reported in Sala et al.. Briefly, 100 μL of cold methanol was mixed with 100 μL of cell media and vortexed for 1 min. The mixture was then centrifuged at 10,000× g (4 °C, 5 min) and the supernatant was injected, after appropriate dilution, in an ultra-high-performance liquid chromatography high-resolution mass spectrometry system (UHPLC-HR-MS).
(§2) The HR-MS system consisted of a UHPLC Ultimate 3000 separation module, equipped with a C18 column (Acquity UPLC HSS C18 reversed phase, 2.1 × 100 mm, 1.8 μm particle size, Waters, Milan, Italy) and coupled with a Q Exactive Hybrid Quadrupole-Orbitrap Mass Spectrometer (Thermo Scientific, San Jose, CA, USA). Mobile phases consisted of a mixture of water containing formic acid (0.1%) (mobile phase A) and acetonitrile containing formic acid (0.1%) (mobile phase B). The gradient began at 1% B, reaching 40% B over 20 min. To wash the column, the mobile phase B concentration was raised to 99% over 6 min and kept at 99% for 3 min before returning to the initial conditions. The MS and MS/MS conditions are fully described in Martini et al..
(§3) Quantification was carried out by building external calibration curves with the available standard compounds.

The nature of a further data set: in vitro. The note with it: human. The format is in vitro ADME. The procedure:
as §1, §2, §3

For data set [3], the system named is SW480 cell line. The experiment in a line: Cell metabolism of phenolic compounds (UHPLC-HR-MS analysis of cell media). It is filed as in vitro ADME, Human. Conditions: for Concentration of substrate in cell medium: initial 50 μmol/L. The procedure:
as §1, §2, §3

Assay in data set [4]: as above
The note with it: human, SW480 cells; SW480, 72 h. It is filed as in vitro ADME, Human. As to the method: as §1, §2, §3

The subject of data set [5] is SW480 cell line. The experiment in a line: Anti-proliferative assay (MTS cell proliferation assay). It is filed as cell-based, Human. Conditions: for IC50: maximum tested concentration 200 μmol/L. The procedure:
(§4) Human colon cancer Caco-2 and SW480 cell lines were cultured and grown as previously reported. […] Incubation was carried out for 24, 48 and 72 h. Data were compared with a control solution containing 0.5% DMSO in cell medium and representing 100% proliferation. In addition, six different mixes were prepared to simulate the simultaneous presence of parent phenolic compounds and metabolites by mimicking the possible human inter-individual variability in colon metabolism of phenolic compounds. Two sets of mixes were prepared to consider the colon metabolism of quercetins and chlorogenic acids. […] For each set of mixtures (QUE and CGA mixtures), three different mixes were formulated. One set of mixes mimicked the low-producers metabotype and contained 90% parent compounds and 10% metabolites (mixes QUE-LP and CGA-LP). Another set of mixes was prepared to simulate the high-producers metabotype and contained 10% parent compounds and 90% metabolites (mixes QUE-HP and CGA-HP). Finally, a third set of mixes was prepared with equimolar amounts of all the compounds (mixes QUE-EQ and CGA-EQ). […] Cell proliferation was assessed by the MTS assay as previously described. […] The IC50 values were calculated through non-linear regression analysis by plotting the base-10 logarithm of the phenolic compound concentration vs. the percentage of inhibition.
In general terms: Tetrazolium assays rely on reduction of a dye to a coloured formazan, in cell work by metabolically active cells.

For data set [6], the system named is Caco-2 cell line. Described as above. The format is cell-based, Human. Conditions: maximum tested concentration 200 μmol/L. The procedure: as §4
Details of data set [7]: method as in PMID 33350133, doi:10.1002/fft2.50. The note with it: of the ingested dose; cited from earlier work.
The next data set concerns SW480 cells. The experiment in a line: Cell cycle analysis by flow cytometry. The format is cell-based, Human. Conditions: 72 h, concentration equal to the IC50 value, vs control. The procedure: Cell cycle analysis was carried out in both Caco-2 and SW480 cell lines as previously reported by Nicoletti et al.. Cells were seeded in 6-well plates at a density of 4000 and 8000 cells/cm^2 for Caco-2 and SW480, respectively.
After 72 h of incubation, the cells were washed with PBS, detached from the 6-well plates with 500 μL of trypsin and resuspended in 1000 μL of medium. Subsequently, they were centrifuged at 3500 rpm for 5 min. After removing the supernatant, the pellet was resuspended with 400 μL of Nicoletti’s solution (sodium citrate 0.1%, Triton X-100 0.1% and 20 μg/mL propidium iodide). After 15 min of incubation at 4 °C in the dark, cell cycle analysis was performed with an Epics XL MCL flow cytometer (Beckman Coulter, Brea, CA, USA).
The data were compared with a control solution containing 0.5% DMSO in the cell medium.
On the technique in general: Flow cytometry measures light scatter and fluorescence of single cells or particles in a stream.

The mark [8] stands for this setting: Homo sapiens, SW480, 48 h of incubation.
Setting [9] is: Homo sapiens, SW480, 72 h of incubation.
Setting [10] is: Homo sapiens, Caco-2, 48 h of incubation.
The mark [11] stands for this setting: Homo sapiens, Caco-2, 72 h of incubation.
Setting [12] is: no dietary restriction or supplementation, ref 47 (Jenner et al.).

As for `O=C(O)Cc1cccc(O)c1` [3-(3′-Hydroxyphenyl)acetic acid, 3-(3′-hydroxyphenyl)acetic acid], in [1], the “Maximum value in human fecal water” value is 327 µmol/L. For the same compound, the “Concentration of substrate in cell medium” value (“Concentration of substrate” for short) in the data set with Caco-2 cell line [2] (24 h) worked out at 48.83 ± 0.85 µM; with Caco-2 cell line [2] (48 h), 47.02 ± 0.39 µM; in the data set with Caco-2 cell line [2] (72 h), 43.17 ± 0.06 µM; in the data set with SW480 cell line [3] (SW480, 24 h) it was 42.23 ± 0.55 µM; in the data set on SW480 cell line [3] (SW480, 48 h), 42.81 ± 0.10 µM; in the data set with SW480 cell line [3] (SW480, 72 h) it was 39.28 ± 0.85 µM. The recovery at 72 h (in the data set “in vitro”; in data set [4]) was > 80% each time. Moreover, the half-maximal inhibitory concentration (IC50) in the data set with SW480 cell line [5] (setting [8]) is > 200 µM; in the data set with SW480 cell line [5] (setting [9]), 99.6 ± 4.8 µM; in the data set with Caco-2 cell line [6] (setting [10]), > 200 µM; with Caco-2 cell line [6] (setting [11]), > 200 µM.
For the compound `O=C(O)CCc1cccc(O)c1` [3-(3′-Hydroxyphenyl)propanoic acid, 3-(3′-hydroxyphenyl)propanoic acid], in data set [1], the “Maximum value in human fecal water” value is 1810 µmol/L. In addition, the “Concentration in human fecal water” value in data set [1] (no dietary restriction or supplementation, ref 46 (Karlsson et al.)) is 61 ± 34 µM. Also, the “Mean concentration in human fecal water” value in data set [1] (setting [12]) was 68 ± 93 µM. The “Range of concentration in human fecal water” value in data set [1] (setting [12]) is 0.72 to 209 µmol/L. Moreover, the “Concentration of substrate” value in the data set with Caco-2 cell line [2] (24 h) worked out at 45.51 ± 0.41 µM; in the data set on Caco-2 cell line [2] (48 h) it was 46.27 ± 0.58 µM; in the data set on Caco-2 cell line [2] (72 h), 46.28 ± 0.76 µM; with SW480 cell line [3] (SW480, 24 h), 52.74 ± 0.44 µM; with SW480 cell line [3] (SW480, 48 h), 50.70 ± 0.11 µM; in the data set on SW480 cell line [3] (SW480, 72 h), 49.95 ± 0.37 µM. The recovery at 72 h (in the data set “in vitro”; in data set [4]) was > 80% in each case. In addition, the inhibition at 100 µM in the data set with SW480 cell line [5] (Homo sapiens, SW480, 100 μmol/L, 72 h, read-out: Percentage of inhibition of SW480 growth) was determined as 13.3%. Also, the IC50 in the data set on SW480 cell line [5] (setting [9]) is > 200 µM; in the data set with Caco-2 cell line [6] (Homo sapiens, Caco-2, 24 h of incubation) it was > 200 µM; with Caco-2 cell line [6] (setting [10]), > 200 µM; with Caco-2 cell line [6] (setting [11]), > 200 µM.
`O=c1c(O)c(-c2ccc(O)c(O)c2)oc2cc(O)cc(O)c12` [Quercetin, quercetin]: the “Absorption in the small intestine” value in data set [7] is reported as “about 20%”. Besides, the “Decrease in cell medium concentration” value with Caco-2 cell line [2] (24 h) amounted to 99.5%. Further, the “Concentration of substrate” value with Caco-2 cell line [2] (24 h) turned out to be 0.61 ± 0.01 µM; in the data set with Caco-2 cell line [2] (48 h) it was 0.29 ± 0.01 µM; with Caco-2 cell line [2] (72 h), 0.52 ± 0.02 µM; in the data set on SW480 cell line [3] (SW480, 24 h), 47.39 ± 1.22 µM; in the data set on SW480 cell line [3] (SW480, 48 h) it was 40.37 ± 1.20 µM; in the data set with SW480 cell line [3] (SW480, 72 h), 14.83 ± 0.84 µM. Moreover, the “Concentration of newly formed metabolite” value in the data set with SW480 cell line [3] (SW480, 24 h, substrate Quercetin-4′-O-glucoside 50 μmol/L) is 52.70 ± 2.24 µM; with SW480 cell line [3] (SW480, 48 h, substrate Quercetin-3-O-glucoside-4′-O-glucoside 50 μmol/L), 0.04 ± 0.00 µM; with SW480 cell line [3] (SW480, 48 h, substrate Quercetin-4′-O-glucoside 50 μmol/L), 36.89 ± 0.52 µM; with SW480 cell line [3] (SW480, 72 h, substrate Quercetin-3-O-glucoside-4′-O-glucoside 50 μmol/L) it was 0.07 ± 0.00 µM; with SW480 cell line [3] (SW480, 72 h, substrate Quercetin-4′-O-glucoside 50 μmol/L), 12.78 ± 0.41 µM. The “Increase in the number of SW480 cells in the S phase” value in the data set with SW480 cells turned out to be 3.1 times. The IC50 in the data set with SW480 cell line [5] (setting [8]) is 89.2 ± 3.1 µM; in the data set on SW480 cell line [5] (setting [9]), 58.2 ± 2.7 µM; with Caco-2 cell line [6] (setting [10]), > 200 µM; in the data set with Caco-2 cell line [6] (setting [11]), 116 ± 4.9 µM. In addition, the “Decrease in IC50 value from 48 to 72 h” value in the data set on SW480 cell line [5] (SW480) came out at 1.5 fold.
For the compound `O=c1c(O)c(-c2ccc(O[C@@H]3O[C@H](CO)[C@@H](O)[C@H](O)[C@H]3O)c(O)c2)oc2cc(O)cc(O)c12` [Quercetin-4′-O-glucoside, quercetin-4′-O-glucoside], the “Concentration of substrate” value in the data set on SW480 cell line [3] (SW480, 24 h) was determined as 2.98 ± 0.07 µM; with SW480 cell line [3] (SW480, 48 h), 0.07 ± 0.00 µM; in the data set on SW480 cell line [3] (SW480, 72 h), 0.01 ± 0.00 µM. Moreover, the “Increase in the number of SW480 cells in the S phase” value with SW480 cells was 2.5 times. Moreover, the “Decrease in IC50 value from 48 to 72 h” value in the data set with SW480 cell line [5] (SW480) turned out to be 1.4 fold. In addition, the half-maximal inhibitory concentration (IC50) with SW480 cell line [5] (SW480, 48 h of incubation) is 144 ± 6.6 µM; in the data set with SW480 cell line [5] (SW480, 72 h of incubation) it was 102 ± 5.3 µM; in the data set with Caco-2 cell line [6] (Caco-2, 48 h of incubation) it was > 200 µM; in the data set on Caco-2 cell line [6] (Caco-2, 72 h of incubation) it was > 200 µM.

For orientation: IC50 means the point on the concentration scale where inhibition reaches its midpoint. Lower therefore signals greater potency. Usually inhibition stands for the change of the read-out against control, counted positive when it falls.
